Type in all cases: cell-based
In experiment [1] the test system is Pseudomonas aeruginosa biofilms. Put plainly: MBEC assay, Pseudomonas biofilms generated 6 hr with mucin, pretreated overnight with alginate oligomer and mucin, then antibiotic. The note with it: 6 hr biofilm with mucin. As for the experimental part:
(§1) The MBEC method used was adapted from Moskowitz S M, et al (2004) J Clin Microbiol 42:1915-1922. After retrieval from −80° C. storage, bacterial isolates were grown on BA and then grown overnight in TSB. After dilution of the bacterial cultures to 0.5 McFarland in CAMHB with or without mucin (2.5 g/l), 100 μl was transferred to the wells of a flat-bottom 96-well microtiter plate. In Example 3, bacterial cultures were diluted to 0.5 McFarland in CAMHB with mucin (2.5 g/1) and alginate and 100 μl was transferred to the wells of a flat-bottom 96-well microtiter plate
(§2) Plates were then wrapped in parafilm to prevent dehydration and incubated at 37° C. to allow biofilm formation. Incubation times and conditions varied as described below.
(§3) After biofilm formation, planktonic cells and supernatant were removed and each well was then washed with sterile phosphate buffered saline (PBS). After washing, cells were treated with combinations of alginates and/or antibiotics with or without mucin (2.5 g/l) in 100 μl CAMHB. Plates were then wrapped in parafilm and incubated at 37° C. with gentle tilting. Incubation times and conditions varied as described below. The antibiotics and concentration ranges used are shown below.
(§4) Wells were washed with PBS and 100 μl of each concentration of a serial dilution of antibiotic in CAMHB was then added in duplicate. Plates were again wrapped in parafilm and incubated at 37° C. with gentle tilting overnight.
(§5) In all MBEC assays final cell number was assessed as follows. Wells were washed with PBS and biofilms resuspended in 100 μl CAMHB by vigorous pipetting. The optical density at 620 nm (OD620) was measured on a microplate reader (FLUOstar OPTIMA, BMG LABTECH) immediately (0 h) and after incubation at 37° C. at 6 h and 24 h.
(§6) The MBEC value is that concentration of antibiotic that inhibits all growth of the bacteria in the test sample. Bacterial growth is measured by an increase in the absorbance of the sample. Therefore, a reduction in MBEC value is an indication that the sensitivity of the sample to the antibiotic has been increased (i.e. less antibiotic is needed to prevent bacterial growth).
The MBEC assay described above was followed with mucin present throughout. Biofilms were generated in the presence of mucin during a 6 hour incubation, washed and incubated with G-fragments and mucin overnight. After washing with PBS the cultures were exposed to antibiotics (amikacin, tobramycin, oxytetracycline or a combination of amikacin and oxytetracycline) without mucin. Results are shown graphically in FIG. 4 and in tabulated form in Tables 6 and 7. […] In fact, 6% G fragments caused a the 6 hr MBEC value for oxytetracycline to drop to ⅛th of the control value. The 24 hr MBEC values for amikacin and tobramycin were halved. […]

Experiment [2] has the same test system. Put plainly: MBEC assay, overnight Pseudomonas biofilms pretreated overnight with G-fragments and mucin, then antibiotic. Conditions: overnight biofilm, mucin 2.5 g/L. How it is done:
as §1, §2, §3, §4, §5, §6
The MBEC assay described above was followed. Biofilms were generated in plates overnight without mucin. Following a PBS wash, the biofilms were incubated with 0, 1, 2 or 6% G-fragments and mucin overnight. After washing with PBS cells were incubated overnight with antibiotics (amikacin or oxytetracycline) and without mucin. […] 6 hr MBEC values for amikacin and oxytetracycline were halved by 1% G fragments and quartered by 2 and 6% G fragments. 24 hr MBEC values for oxytetracycline were halved by all concentrations of G fragments. 24 hr MBEC values for amikacin were reduced although it was not possible to quantify this reduction.

Experiment [3] has the same test system. Kind of experiment: MBEC assay, Pseudomonas biofilms generated overnight in the presence of mucin and G-fragments, then antibiotic. As for the experimental part: as §1, §2, §3, §4, §5, §6
The MBEC assay described above was followed. Biofilms were generated in plates overnight in the presence of mucin and 0, 1, 2 or 6% G fragments. After washing, biofilms were exposed to oxytetracycline (without mucin) overnight. […] 6 hr MBEC values were halved when 2% and 6% G fragments were used.

[4] abbreviates: exposed to 0 G-fragments overnight.
[5] abbreviates: exposed to 6% G-fragments overnight.
Where [6] appears, read: biofilm generated with mucin 2.5 g/L and G-fragments 0.
Where [7] appears, read: biofilm generated with mucin 2.5 g/L and G-fragments 1%.
Setting [8] is: biofilm generated with mucin 2.5 g/L and G-fragments 2%.
[9] abbreviates: biofilm generated with mucin 2.5 g/L and G-fragments 6%.

The source of these data is patent publication US10624920B2, “Use of alginate oligomers in combating biofilms” (Algipharma AS, priority 2007, dated 2020).

Take `NC[C@H]1O[C@H](O[C@H]2[C@H](O)[C@@H](O[C@H]3O[C@H](CO)[C@@H](O)[C@H](N)[C@H]3O)[C@H](N)C[C@@H]2N)[C@H](N)C[C@@H]1O` [Tobramycin, tobramycin]: in experiment [1] (setting [4]), the “MBEC value at 6 hr after overnight exposure to antibiotic” value (“MBEC value at 6 hr” for short) stood at 32 µg/mL and the “MBEC value at 24 hr after overnight exposure to antibiotic” value (“MBEC value at 24 hr” for short) is 512 µg/mL. In experiment [1] (setting [5]), the “MBEC value at 6 hr” value came out at 8 µg/mL and the “MBEC value at 24 hr” value stood at 256 µg/mL.

With `NCC[C@H](O)C(=O)N[C@@H]1C[C@H](N)[C@@H](O[C@H]2O[C@H](CN)[C@@H](O)[C@H](O)[C@H]2O)[C@H](O)[C@H]1O[C@H]1O[C@H](CO)[C@@H](O)[C@H](N)[C@H]1O` [Amikacin, amikacin], the “MBEC value at 6 hours after overnight exposure to antibiotic” value is 2048 µg/mL in experiment [2] (G-fragments 0), 1024 µg/mL in experiment [2] (G-fragments 1%), 512 µg/mL in experiment [2] (G-fragments 2%) and 512 µg/mL in experiment [2] (G-fragments 6%). The “MBEC value at 24 hours after overnight exposure to antibiotic” value in experiment [2] (G-fragments 0) is more than 4096 µg/mL; in experiment [2] (G-fragments 1%) it was 4096 µg/mL; in experiment [2] (G-fragments 2%), 4096 µg/mL; in experiment [2] (G-fragments 6%) it was 4096 µg/mL. Further, the “MBEC value at 6 hr” value in experiment [1] (setting [4]) was 64 µg/mL; in experiment [1] (setting [5]) it was 16 µg/mL. Moreover, the “MBEC value at 24 hr” value in experiment [1] (setting [4]) is more than 4096 µg/mL; in experiment [1] (setting [5]), 4096 µg/mL.

Turning to `CN(C)[C@@H]1C(O)=C(C(N)=O)C(=O)[C@@]2(O)C(O)=C3C(=O)c4c(O)cccc4[C@@](C)(O)[C@H]3[C@H](O)[C@@H]12` [Oxytetracycline, oxytetracycline], the “MBEC value at 6 hours after overnight exposure to antibiotic” value in experiment [2] (G-fragments 0) is 512 µg/mL; in experiment [2] (G-fragments 1%), 256 µg/mL; in experiment [2] (G-fragments 2%), 128 µg/mL; in experiment [2] (G-fragments 6%), 128 µg/mL. For the same compound, the “MBEC value at 24 hours after overnight exposure to antibiotic” value in experiment [2] (G-fragments 0) is 2048 µg/mL; in experiment [2] (G-fragments 1%), 1024 µg/mL; in experiment [2] (G-fragments 2%) it was 1024 µg/mL; in experiment [2] (G-fragments 6%) it was 1024 µg/mL. Also, the “MBEC value at 6 hr” value is 512 µg/mL in experiment [3] (setting [6]); 512 µg/mL in experiment [3] (setting [7]); 256 µg/mL in experiment [3] (setting [8]); 256 µg/mL in experiment [3] (setting [9]); 512 µg/mL in experiment [1] (setting [4]); 64 µg/mL in experiment [1] (setting [5]). Besides, the “MBEC value at 24 hr” value in experiment [3] (setting [6]) came to 4096 µg/mL; in experiment [3] (setting [7]) it was 2048 µg/mL; in experiment [3] (setting [8]), 2048 µg/mL; in experiment [3] (setting [9]), 2048 µg/mL; in experiment [1] (setting [4]) it was 1024 µg/mL; in experiment [1] (setting [5]), 1024 µg/mL.
